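Tested at 5 concentrations; 48 h exposure; 96-well plates; endpoints linearly interpolated, else capped at highest concentration. TGI is the concentration that stops growth completely.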
Key:
Test in all cases: NCI tumour cell line growth inhibition, 48 h
[1] = system: 786-0 renal
[2] = system: A498 renal
[3] = system: A549 NSCLC
[4] = system: ACHN renal
[5] = system: BT-549 breast
[6] = system: CAKI-1 renal
[7] = system: CCRF-CEM leukemia
[8] = system: COLO 205 colon
[9] = system: DU-145 prostate
[10] = system: EKVX NSCLC
[11] = system: HCT-116 colon
[12] = system: HCT-15 colon
[13] = system: HOP-62 NSCLC
[14] = system: HOP-92 NSCLC
[15] = system: HT29 colon
[16] = system: IGROV1 ovarian
[17] = system: KM12 colon
[18] = system: LOX IMVI melanoma
[19] = system: M14 melanoma
[20] = system: MALME-3M melanoma
[21] = system: MDA-MB-231 breast
[22] = system: MDA-MB-435
[23] = system: MDA-N
[24] = system: MOLT-4 leukemia
[25] = system: NCI-H226 lung
[26] = system: NCI-H23 lung
[27] = system: NCI-H460 lung
[28] = system: NCI-H522 lung
[29] = system: NCI/ADR-RES ovarian
[30] = system: OVCAR-3 ovarian
[31] = system: OVCAR-4 ovarian
[32] = system: OVCAR-5 ovarian
[33] = system: OVCAR-8 ovarian
[34] = system: RPMI-8226 leukemia
[35] = system: RXF 393 renal
[36] = system: SF-268 CNS
[37] = system: SF-295 CNS
[38] = system: SF-539 CNS
[39] = system: SK-MEL-28 melanoma
[40] = system: SK-MEL-5 melanoma
[41] = system: SK-OV-3 ovarian
[42] = system: SN12C renal
[43] = system: SNB-19 CNS
[44] = system: SNB-75 CNS
[45] = system: SW-620 colon
[46] = system: T-47D breast
[47] = system: TK-10 renal
[48] = system: U251 CNS
[49] = system: UACC-257 melanoma
[50] = system: UO-31 renal
[51] = system: HL-60(TB) leukemia
[52] = system: K-562 leukemia
[53] = system: PC-3 prostate
[54] = system: UACC-62 melanoma

How did the TGI [1] turn out when `N#CC(c1nc2ccccc2s1)c1ncnc(Cl)c1[N+](=O)[O-]` (centres undefined) was run?
Its TGI is 42.7 µM.

And the TGI [2]?
The TGI was > 100 µM.

And the TGI [3]?
The TGI was > 100 µM.

What about the TGI [4] of the same compound?
Its TGI is > 100 µM.

And the TGI [5]?
Its TGI is 56.3 µM.

And the TGI [6]?
The TGI was > 100 µM.

What about the TGI [7] of the same compound?
Its TGI is > 100 µM.

What about the TGI [8] of the same compound?
The TGI was 29.8 µM.

And the TGI [9]?
The TGI was > 100 µM.

What about the TGI [10] of the same compound?
The TGI was 76.5 µM.

And the TGI [11]?
Its TGI is 26.4 µM.

What about the TGI [12] of the same compound?
The TGI was 35.8 µM.

And the TGI [13]?
The TGI was 97.2 µM.

And the TGI [14]?
Its TGI is 42.8 µM.

What about the TGI [15] of the same compound?
Its TGI is 34.8 µM.

What about the TGI [16] of the same compound?
Its TGI is 30.5 µM.

What about the TGI [17] of the same compound?
The TGI was > 100 µM.

And the TGI [18]?
Its TGI is 33.1 µM.

What about the TGI [19] of the same compound?
The TGI was 34.3 µM.

And the TGI [20]?
Its TGI is 41.8 µM.

What about the TGI [21] of the same compound?
The TGI was 92.1 µM.

And the TGI [22]?
The TGI was 83.2 µM.

And the TGI [23]?
Its TGI is 37.5 µM.

What about the TGI [24] of the same compound?
Its TGI is > 100 µM.

What about the TGI [25] of the same compound?
The TGI was 83.3 µM.

And the TGI [26]?
Its TGI is 32.7 µM.

What about the TGI [27] of the same compound?
Its TGI is 47.1 µM.

And the TGI [28]?
The TGI was 33.5 µM.

What about the TGI [29] of the same compound?
Its TGI is 44.3 µM.

And the TGI [30]?
Its TGI is 47.8 µM.

What about the TGI [31] of the same compound?
Its TGI is > 100 µM.

What about the TGI [32] of the same compound?
Its TGI is 91.7 µM.

And the TGI [33]?
Its TGI is 34.7 µM.

And the TGI [34]?
The TGI was > 100 µM.

What about the TGI [35] of the same compound?
The TGI was 89 µM.

What about the TGI [36] of the same compound?
Its TGI is 32.9 µM.

And the TGI [37]?
The TGI was > 100 µM.

What about the TGI [38] of the same compound?
The TGI was 61.3 µM.

And the TGI [39]?
Its TGI is 38.7 µM.

And the TGI [40]?
Its TGI is 30 µM.

And the TGI [41]?
The TGI was > 100 µM.

And the TGI [42]?
Its TGI is 41.9 µM.

And the TGI [43]?
Its TGI is > 100 µM.

And the TGI [44]?
The TGI was > 100 µM.

What about the TGI [45] of the same compound?
Its TGI is 35.5 µM.

What about the TGI [46] of the same compound?
Its TGI is 86.9 µM.

What about the TGI [47] of the same compound?
Its TGI is > 100 µM.

What about the TGI [48] of the same compound?
The TGI was 95.7 µM.

What about the TGI [49] of the same compound?
Its TGI is 41 µM.

What about the TGI [50] of the same compound?
The TGI was 91.3 µM.

Which TGI [1] does the source give for `CC(=O)Nc1ccc2c3c(cc(O)c2c1)N(C(=O)CCCCCC(=O)N1CC(CCl)c2c1cc(O)c1cc(NC(C)=O)ccc21)CC3CCl` (centres undefined) here?
Its TGI is 0.0412 µM.

And the TGI [5]?
Its TGI is 0.0736 µM.

What about the TGI [6] of the same compound?
The TGI was 0.918 µM.

And the TGI [9]?
Its TGI is 0.0392 µM.

What about the TGI [10] of the same compound?
The TGI was 0.803 µM.

What about the TGI [12] of the same compound?
The TGI was 14.2 µM.

What about the TGI [51] of the same compound?
Its TGI is 26 µM.

What about the TGI [13] of the same compound?
The TGI was > 100 µM.

And the TGI [14]?
The TGI was 0.0392 µM.

And the TGI [15]?
The TGI was > 33.3 µM.

And the TGI [16]?
The TGI was > 87.2 µM.

And the TGI [52]?
Its TGI is > 100 µM.

And the TGI [17]?
The TGI was 0.636 µM.

What about the TGI [18] of the same compound?
Its TGI is > 100 µM.

And the TGI [19]?
The TGI was 0.125 µM.

And the TGI [20]?
Its TGI is 0.0654 µM.

And the TGI [21]?
Its TGI is 0.0503 µM.

What about the TGI [22] of the same compound?
Its TGI is 0.187 µM.

What about the TGI [23] of the same compound?
The TGI was 0.085 µM.

And the TGI [25]?
The TGI was 0.0915 µM.

What about the TGI [27] of the same compound?
The TGI was > 100 µM.

And the TGI [29]?
Its TGI is > 100 µM.

What about the TGI [32] of the same compound?
Its TGI is 13.3 µM.

What about the TGI [53] of the same compound?
The TGI was 1.8 µM.

And the TGI [37]?
The TGI was > 100 µM.

And the TGI [38]?
Its TGI is 0.205 µM.

And the TGI [39]?
Its TGI is > 100 µM.

What about the TGI [40] of the same compound?
Its TGI is 0.0198 µM.

And the TGI [41]?
Its TGI is > 100 µM.

And the TGI [43]?
The TGI was > 100 µM.

What about the TGI [45] of the same compound?
The TGI was > 100 µM.

And the TGI [46]?
The TGI was 0.02 µM.

What about the TGI [47] of the same compound?
Its TGI is > 100 µM.

What about the TGI [54] of the same compound?
The TGI was 0.0248 µM.
